For data set [1], the system named is murine NK and CD8+ T cells. As to the kind of experiment: TGFβ suppression of murine NK and CD8+ T cell cytokine secretion. Type of data set: cell-based, BALB/c mice. To be noted: TGFβ1 10 ng/ml, 0.1 μM to 10 μM, ELISA. The method, then:
Mouse NK cells and CD8^+ T cells were purified from female BALB/C mouse splenocytes by magnetic antibody sorting (Miltenyi Biotec) following the manufacturer's instructions. After isolation, the cells were re-suspended separately in complete media (RPMI1640, 5% FBS, 10 mM HEPES, 1×NEAA, 1×L-Glu, sodium pyruvate, 1×Penn/Strep, 0.055 mM βME, 50 U/ml IL2) and plated in flat 96-well plates at 37°C for 5-7 days at a density of 5 × 10^4/well, in triplicate, and stimulated with Treg Suppression Inspector beads (Miltenyi Biotec, Cat# 130-093-627). Cells were cultured with or without TGFβ1 at 10 ng/ml. […] Cytokine release in supernatants was measured by ELISA (R&D, mouse Granzyme B: DY1865; mouse INFγ:3321-1H-6). One-way ANOVA with Dunnett's test was used to compare the TGFβ+Gal treatments to the TGFβ+DMSO treatment.
A general note: An ELISA detects its analyte on a solid surface through an enzyme-linked reagent.

For data set [2], the system named is Calu6 human xenograft lung cancer model. As to the kind of experiment: Calu6 in vivo xenograft cancer model. Details: species or system athymic nude mice. How it is done: (§1) Female athymic nude mice from Charles River weighing 22 to 26 grams were implanted subcutaneously in the flank with 1×10^7 cells in a 1:1 (v/v) mixture in matrigel. […] Tumor volumes and body weight were determined by electronic caliper every 2 to 3 days. Repeat measures analysis was utilized with log transformed data and the auto-regression (AR) method to determine the overall p-value for galunisertib growth curves relative to the vehicle control in both tumor models. […]

A short description of data set [3]: in vivo. To be noted: female, athymic nu/nu, mouse, plasma, po, 75 mg/kg.
Procedure: For in vivo measurement of tumor cell pSMAD activity, tumors were harvested from mice at the indicated time points post-treatment, snap frozen in liquid nitrogen, then pulverized in lysis buffer [EDTA 5 mM, EGTA 5 mM, sodium pyrophosphate 30 mM, sodium chloride 6.7 mM, sodium fluoride 50 mM, and 1% triton in water, pH 7.4 with protease and phosphatase inhibitors (Sigma, p8340, p5726, p0044) and sodium orthovanadate 2.5 mM]. Protein concentration was estimated with DC protein assay kit (BioRad).
Percent inhibition of normalized pSMAD2 levels was calculated by first determining the ratio of tSMAD to pSMAD values for the vehicle group. […] Percent inhibition for compound treated groups was determined relative to the minimum pSMAD inhibition of the vehicle group using the formula: [(100- (normalized pSMAD in the experimental treatment group/normalized pSMAD in the vehicle treated group)]. IC50 of pSMAD inhibition was calculated for the data using non-linear regression to fit the standard four parameter logistic model using GraphPad Prism 6.
Female athymic nu/nu mice or immune competent syngenic BALB/c mice (Charles River or Taconic Farms, respectively, 22 to 28 grams) were maintained in microisolator cages, received food and water ad libitum, and were quarantined for 1 week before experimental manipulation. Sub-confluent Calu6 human non-small cell lung cancer (NSCLC) cells were injected subcutaneously in the flank of nude mice (1x 10^7cells/per animal) in 0.2 mL of culture medium mixed with Matrigel (BD Biosciences, 1:1 v/v). EMT6-LM2 murine triple negative breast cancer tumor cells (5 × 10^5 cells/per animal in the absence of matrigel) were implanted on the flank of BALB/c mice. EMT6-LM2 cells were generated from parental EMT6 cells which were passaged twice from spontaneous lung metastases (LM) following subcutaneous growth. When the tumor volume reached ~250 mm^3, mice were randomized and separated into treatment groups.
Tumors and plasma were collected 2 hours post dosage for analysis of pSMAD and compound levels.
Tumors and plasma were collected at the indicated time points (0.5, 1, 1.5, 2, 4, 8, and 16 hours) for analysis of pSMAD and compound levels.
Percent target inhibition was calculated as described above then was modeled as a function of either dose or plasma concentration.
For data set [4], the system named is BMP ligand (SMAD1/5/8-responsive promoter). Briefly: Cell based luciferase reporter assay (SMAD1/5/8), BMP4-stimulated HEK293_SMAD1/5/8 cells. To be noted: Homo sapiens; BMP4 20 nM stimulated HEK293_SMAD1/5/8. A general note: A reporter such as luciferase makes a cellular process visible.
The subject of data set [5] is KPC-M09 cells. Briefly: E-Cadherin assay / TGFβ1-mediated EMT in KPC-M09 cells. The class given is cell-based, mouse. The note with it: 30 ng/ml TGFβ plus 2 μM or 10 μM, 48 hours. An excerpt: The primary mouse pancreatic ductal adenocarcinoma (PDAC) cell line KPC-M09 was derived from a pancreatic GEMM [KrasLSL-G12D/+; Trp53LSL-R172H/+; Ptf1aCre/+ (KPC)]. […] Cell morphological changes were imaged at 20X (bright field). Cells were stained with an anti-E-cadherin primary Ab (Cell Signaling, clone 24E10, diluted 1:200) followed with a secondary anti-rabbit Cy3 (Cell Signaling, diluted 1:500). DAPI was used as a counter stain and cells were imaged at 40X.

Data set [6] deals with TGFβRII (Homo sapiens, UniProt P37173). As to the kind of experiment: Confirmatory TGFβRII binding assay.
Sequence of TGFβRII (P37173 23-567): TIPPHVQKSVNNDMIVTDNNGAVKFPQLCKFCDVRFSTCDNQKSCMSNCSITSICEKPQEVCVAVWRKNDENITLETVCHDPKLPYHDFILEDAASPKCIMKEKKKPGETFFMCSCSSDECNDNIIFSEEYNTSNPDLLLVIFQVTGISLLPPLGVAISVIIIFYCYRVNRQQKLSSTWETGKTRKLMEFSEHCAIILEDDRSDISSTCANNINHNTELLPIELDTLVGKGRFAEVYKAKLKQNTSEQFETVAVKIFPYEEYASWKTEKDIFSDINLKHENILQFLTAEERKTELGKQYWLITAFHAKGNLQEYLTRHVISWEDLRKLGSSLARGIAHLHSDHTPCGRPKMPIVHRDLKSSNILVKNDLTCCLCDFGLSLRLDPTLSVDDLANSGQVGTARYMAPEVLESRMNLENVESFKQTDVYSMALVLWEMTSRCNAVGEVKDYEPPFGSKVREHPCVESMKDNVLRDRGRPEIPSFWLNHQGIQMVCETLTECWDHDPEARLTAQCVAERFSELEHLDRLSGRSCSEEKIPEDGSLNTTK
On the set-up of data set [7]: method as in PMID 25424852. The note with it: patients with glioblastoma; cited from earlier work.
The conditions of data set [8]: patients with myelodysplastic syndrome; cited from earlier work.
Data set [9] relates to pSMAD in human PBMCs. Also on record: method as in PMID 17453744. To be noted: cited from earlier work.
In data set [10] the test system is human NK and CD8+ T cells. As to the kind of experiment: TGFβ1 suppression of human NK and CD8+ T cell cytokine secretion. Type of data set: cell-based. To be noted: TGFβ1 10 ng/ml, ELISA. How it is done:
Blood from healthy donors were obtained from the New York Blood Center. After isolation of PBMCs via high density gradient centrifugation with Ficoll-Paque, NK cells and CD8^+ T cells were purified from PBMCs by magnetic antibody sorting (Miltenyi Biotec) following the manufacturer's instructions. Purified CD8^+ T cells and NK cells were re-suspended separately in complete media (RPMI1640, 5% FBS, 10mM HEPES, 1×NEAA, 1×L-glu, sodium pyruvate, 1×penn/strep, 0.055 mM βME, 50 U/ml IL-2) and plated in 96-well plates at 37°C for 2 days at a density of 5 × 10^4/well, in triplicates. CD8^+ T cells were stimulated with human T cell activation/expansion beads (Miltenyi Biotec; 130-091-441), while NK cells were stimulated with the same beads plus 10 U/ml IL-2. Cells were cultured with or without TGFβ1 at 10 ng/ml. […] Cytokine release in supernatants was measured by ELISA (R&D; human Granzyme B: DY2906; human INFγ: DY285-05). One-way ANOVA with Dunnett's test was used to compare the TGFβ+Gal treatments to the TGFβ+DMSO treatment.

Data set [11] relates to MX1 human xenograft breast cancer model. Briefly: MX1 in vivo xenograft cancer model. Also on record: species or system athymic nude mice. The method, then:
as §1

For data set [12] the following is noted: second line glioblastoma; cited from earlier work.
Data set [13] relates to U87MG xenograft tumors. As to the kind of experiment: U87MG glioblastoma xenograft tumor model. To be noted: galunisertib 25 mg/kg BID oral; lomustine (CCNU) 30 mg/kg single intraperitoneal dose; alone or combined.
Procedure: Five million U87MG glioblastoma cells, obtained from ATCC (Manassas, VA), were injected subcutaneously in the flank of 8- to 9-week old, female, athymic nude mice (Harlan, Indianapolis, IN) in a 1:1 mixture of 1x PBS and matrigel (Becton Dickinson, Bedford, MA). Mice were monitored daily for palpable tumors. […] The tumor volumes were recorded at regular intervals following treatment.
The test system of data set [14] is 4T1 syngenic murine breast cancer model. Briefly: 4T1 in vivo syngenic breast cancer model. Also on record: species or system BALB/c mice. The method, then: Female BALB/c mice from Taconic Farms weighing 20 to 24 grams were acclimated for 1 week prior to study initiation, had ad libitum access to food and were shaved in the implant area prior to the orthotopic injection of 1 × 10^5 4T1 cells into the mammary fat pad in a volume of 20 μL media. Ten animals per group were utilized for tumor measurement and survival endpoints. […] Tumor volumes were determined by electronic caliper every 2 to 3 days. Statistical analysis was performed by repeated measures analysis and Kaplan-Meier analysis.

The mark [15] stands for this setting: 75 mg/kg twice daily, data not shown.

Here are results for 1 molecule from paper PMC5805504 (Oncotarget, 2017).

Each structure is given as a SMILES string.

For orientation: Tmax means the time at which the peak concentration occurs. Usually IC50 stands for the concentration that gives 50% inhibition.

Consider `Cc1cccc(-c2nn3c(c2-c2ccnc4ccc(C(N)=O)cc24)CCC3)n1.O` [galunisertib, 4-[2-(6-methylpyridin-2-yl)-5,6-dihydro-4H-pyrrolo[1,2-b]pyrazol-3-yl]quinoline-6-carboxamide monohydrate], for which the “TGFβ1 suppression of IFNγ and granzyme B secretion” value was “prevented the suppression of IFNγ and granzyme B secretion” in data set [1]; “prevented the suppression of IFNγ and granzyme B secretion” in data set [10]. Moreover, the tumor growth delay was 8.3 ± 2.6 days in data set [2] (75 mg/kg twice daily oral gavage, 500 mm^3 crossing time, p = 0.034); 10.3 ± 4.3 days in data set [11] (75 mg/kg twice daily oral gavage, 1500 mm^3 crossing time, p = 0.014); 13 ± 2.4 days in data set [14] (75 mg/kg twice daily oral gavage, 500 mm^3 crossing time, p < 0.01). Moreover, the body weight entry in [2] (setting [15]), in data set [11] (setting [15]) and in [14] (setting [15]) was “No body weight loss” throughout. For the same molecule, the Tmax in data set [3] is 30 min. For the same molecule, the IC50 in data set [4] is above 10 µM; in [6], 0.43 µM. Also, in [5], the “TGFβ1-mediated EMT (epithelial morphology, membrane E-cadherin)” value was “prevented TGFβ1-mediated EMT”. For the same molecule, the “clinical activity, phase I” value in [7] is reported as “promising activity”. Also, the “clinical activity, phase II” value in data set [8] is on record as “clinical activity”. In addition, the “pSMAD in human PBMCs ex vivo” value in [9] is “inhibit pSMAD”. Also, the “clinical outcome versus lomustine, phase II” value in data set [12] was “failed to show improvement over lomustine”. In addition, in [13], the “anti-tumor effect (tumor volume)” value is listed as “modest anti-tumor effect”. Further, the survival advantage in data set [14] (75 mg/kg twice daily, Kaplan-Meier, p = 0.01) is 4.5 days.
